Measured values taken from the supplement of paper PMC11208160.

assay: recombinant barcode read abundance after kanamycin selection (control-corrected) (log10(CPM+1)); higher = more efficient recombination; sequences stand for … in AGTGCAGAGAAAATCGGCCAGTTTTCTCTGCCTGCAGTCCGCATGCCGT…AGATTTATGCAGCGGACTGCCTTTCTCCCAAAGTGATAAACCGGACAGTATCATGGACCGGTTTTCCCGGTAATCCGTATTTGCAAGGTTGGTTTCACT; site = the 11-nt target
Procedure, shortened: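 A promoter, a target, a barcode and the first 104 bridge RNA bases under J23119 made up each oligo. Oligos were Gibson-cloned into a vector bearing the other 73 bp and a T7-inducible recombinase, then co-electroporated into E. coli with a donor plasmid and plated in duplicate on chloramphenicol/ampicillin LB agar (control) or chloramphenicol/ampicillin/kanamycin with 0.1 mM IPTG. Recombination efficiency is the averaged, control-corrected counts per million of recombinant-junction barcodes. Reported values are log10(CPM+1).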
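Also: IS621 recombinase and bridge RNA in Escherichia coli cells.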

First: TAGCACTCTTGGGTTCTAACCTGTTGCAG (site TAGCACTCTCT)
Second: TAGCATACTTGGGTTCTAACCTGTTGCCC (site TAGCATACTAG)
The “recombinant barcode read abundance (log10)” value of the first is higher: 2.08 for the first, 0.329 for the second.

Going from “TAGCATACTTGGGTTCTAACCTGTTGCCC (site TAGCATACTCG)” to “TAGCATACTTGGGTTCTAACCTGTTGCCC (site TAGCATACTGG)”, the “recombinant barcode read abundance (log10)” value rises from 0.266 to 0.941.

“TAGCATACTTGGGTTCTAACCTGTTGCCC (site TAGCATACTTG)” and “TAGCATGCTTGGGTTCTAACCTGTTGCAG (site TAGCATGCTAT)” are within 0.2 log units of each other in “recombinant barcode read abundance (log10)” value: 0.187 for the first, 0.0261 for the second.

First: TAGCATGCTTGGGTTCTAACCTGTTGCAG (site TAGCATGCTCT)
Second: TAGCATGCTTGGGTTCTAACCTGTTGCAG (site TAGCATGCTGT)
The “recombinant barcode read abundance (log10)” value of the first is higher: 1.44 for the first, 0.0603 for the second.

Compared with “TAGCATGCTTGGGTTCTAACCTGTTGCAG (site TAGCATGCTTT)”, “TAGCATGCTTGGGTTCTAACCTGTTGCAT (site TAGCATGCTAT)” is higher in “recombinant barcode read abundance (log10)” value: 0.017 for the first, 0.434 for the second.

“TAGCATGCTTGGGTTCTAACCTGTTGCAT (site TAGCATGCTCT)” and “TAGCATGCTTGGGTTCTAACCTGTTGCAT (site TAGCATGCTGT)” are within 0.2 log units of each other in “recombinant barcode read abundance (log10)” value: 0.204 for the first, 0.228 for the second.

“TAGCATGCTTGGGTTCTAACCTGTTGCAT (site TAGCATGCTTT)” and “TAGCCATCTTGGGTTCTAACCTGTTGCTC (site TAGACATCTGA)” are within 0.2 log units of each other in “recombinant barcode read abundance (log10)” value: 0.065 for the first, 0.0329 for the second.

“TAGCCATCTTGGGTTCTAACCTGTTGCTC (site TAGCCATCTGA)” and “TAGCCATCTTGGGTTCTAACCTGTTGCTC (site TAGGCATCTGA)” are within 0.2 log units of each other in “recombinant barcode read abundance (log10)” value: 0.508 for the first, 0.404 for the second.

“TAGCCATCTTGGGTTCTAACCTGTTGCTC (site TAGTCATCTGA)” and “TAGCCTACTTGGGTTCTAACCTGTTGCGG (site TAGCCTACTAC)” are within 0.2 log units of each other in “recombinant barcode read abundance (log10)” value: 0 for the first, 0.0228 for the second.

Going from “TAGCCTACTTGGGTTCTAACCTGTTGCGG (site TAGCCTACTCC)” to “TAGCCTACTTGGGTTCTAACCTGTTGCGG (site TAGCCTACTGC)”, the “recombinant barcode read abundance (log10)” value falls from 1.41 to 0.0519.

“TAGCCTACTTGGGTTCTAACCTGTTGCGG (site TAGCCTACTTC)” and “TAGCCTGCTTGGGTTCTAACCTGTTGCCT (site TAGACTGCTAG)” are within 0.2 log units of each other in “recombinant barcode read abundance (log10)” value: 0.00783 for the first, 0.0305 for the second.

Compared with “TAGCCTGCTTGGGTTCTAACCTGTTGCCT (site TAGCCTGCTAG)”, “TAGCCTGCTTGGGTTCTAACCTGTTGCCT (site TAGGCTGCTAG)” is lower in “recombinant barcode read abundance (log10)” value: 1.35 for the first, 0.026 for the second.

“TAGCCTGCTTGGGTTCTAACCTGTTGCCT (site TAGTCTGCTAG)” and “TAGCGCACTTGGGTTCTAACCTGTTGCGG (site TAGCACACTCC)” are within 0.2 log units of each other in “recombinant barcode read abundance (log10)” value: 0.177 for the first, 0.28 for the second.

Going from “TAGCGCACTTGGGTTCTAACCTGTTGCGG (site TAGCCCACTCC)” to “TAGCGCACTTGGGTTCTAACCTGTTGCGG (site TAGCGCACTCC)”, the “recombinant barcode read abundance (log10)” value rises from 0.076 to 1.33.

Going from “TAGCGCACTTGGGTTCTAACCTGTTGCGG (site TAGCTCACTCC)” to “TAGCGGCCTTGGGTTCTAACCTGTTGCCT (site TAACGGCCTAG)”, the “recombinant barcode read abundance (log10)” value rises from 0.13 to 0.651.

Compared with “TAGCGGCCTTGGGTTCTAACCTGTTGCCT (site TACCGGCCTAG)”, “TAGCGGCCTTGGGTTCTAACCTGTTGCCT (site TAGCGGCCTAG)” is higher in “recombinant barcode read abundance (log10)” value: 0.0223 for the first, 0.428 for the second.

Going from “TAGCGGCCTTGGGTTCTAACCTGTTGCCT (site TATCGGCCTAG)” to “TAGCGTACTTGGGTTCTAACCTGTTGCGT (site TAGCGTACTAC)”, the “recombinant barcode read abundance (log10)” value rises from 0.0926 to 0.805.

Going from “TAGCGTACTTGGGTTCTAACCTGTTGCGT (site TAGCGTACTCC)” to “TAGCTCCCTTGGGTTCTAACCTGTTGCCC (site TAGCTCCCTAG)”, the “recombinant barcode read abundance (log10)” value rises from 0.0572 to 0.279.

First: TAGCTCCCTTGGGTTCTAACCTGTTGCCC (site TAGCTCCCTCG)
Second: TAGCTCCCTTGGGTTCTAACCTGTTGCCC (site TAGCTCCCTGG)
The “recombinant barcode read abundance (log10)” value of the first is lower: 0.115 for the first, 0.872 for the second.

“TAGCTCCCTTGGGTTCTAACCTGTTGCCC (site TAGCTCCCTTG)” and “TAGCTGACTTGGGTTCTAACCTGTTGCCC (site GTTTGACCTCC)” are within 0.2 log units of each other in “recombinant barcode read abundance (log10)” value: 0.0924 for the first, 0.136 for the second.

Compared with “TAGCTGACTTGGGTTCTAACCTGTTGCCC (site TAGCTGACTGG)”, “TAGCTGTCTTGGGTTCTAACCTGTTGCGT (site AATCTGTCTAC)” is lower in “recombinant barcode read abundance (log10)” value: 0.932 for the first, 0.106 for the second.

Going from “TAGCTGTCTTGGGTTCTAACCTGTTGCGT (site TAGCTGTCTAC)” to “TAGGATACTTGGGTTCTAACCTGTTGCAC (site TAGGATACTAT)”, the “recombinant barcode read abundance (log10)” value falls from 2.29 to 0.34.

Going from “TAGGATACTTGGGTTCTAACCTGTTGCAC (site TAGGATACTCT)” to “TAGGATACTTGGGTTCTAACCTGTTGCAC (site TAGGATACTGT)”, the “recombinant barcode read abundance (log10)” value rises from 0.729 to 2.08.

“TAGGATACTTGGGTTCTAACCTGTTGCAC (site TAGGATACTTT)” and “TAGGATACTTGGGTTCTAACCTGTTGCAG (site TAGGATACTAT)” are within 0.2 log units of each other in “recombinant barcode read abundance (log10)” value: 0.107 for the first, 0.29 for the second.

First: TAGGATACTTGGGTTCTAACCTGTTGCAG (site TAGGATACTCT)
Second: TAGGATACTTGGGTTCTAACCTGTTGCAG (site TAGGATACTGT)
The “recombinant barcode read abundance (log10)” value of the first is higher: 2.5 for the first, 0.106 for the second.

First: TAGGATACTTGGGTTCTAACCTGTTGCAG (site TAGGATACTTT)
Second: TAGGATACTTGGGTTCTAACCTGTTGCAT (site TAGGATACTAT)
The “recombinant barcode read abundance (log10)” value of the first is lower: 0.351 for the first, 1.55 for the second.

First: TAGGATACTTGGGTTCTAACCTGTTGCAT (site TAGGATACTCT)
Second: TAGGATACTTGGGTTCTAACCTGTTGCAT (site TAGGATACTGT)
The “recombinant barcode read abundance (log10)” value of the first is higher: 0.583 for the first, 0.0987 for the second.

Going from “TAGGATACTTGGGTTCTAACCTGTTGCAT (site TAGGATACTTT)” to “TAGGATACTTGGGTTCTAACCTGTTGCGT (site TAGGAAACTAC)”, the “recombinant barcode read abundance (log10)” value rises from 0.0945 to 0.314.

Compared with “TAGGATACTTGGGTTCTAACCTGTTGCGT (site TAGGACACTAC)”, “TAGGATACTTGGGTTCTAACCTGTTGCGT (site TAGGAGACTAC)” is lower in “recombinant barcode read abundance (log10)” value: 0.928 for the first, 0.266 for the second.

First: TAGGATACTTGGGTTCTAACCTGTTGCGT (site TAGGATACTAC)
Second: TAGGATCCTTGGGTTCTAACCTGTTGCGA (site ACCCGCTCTAG)
The “recombinant barcode read abundance (log10)” value of the first is higher: 3.02 for the first, 0.205 for the second.

Compared with “TAGGATCCTTGGGTTCTAACCTGTTGCGA (site TAGGATCCTTC)”, “TAGGATTCTTGGGTTCTAACCTGTTGCCT (site TAATATTCTAG)” is lower in “recombinant barcode read abundance (log10)” value: 2.71 for the first, 0.0335 for the second.

Going from “TAGGATTCTTGGGTTCTAACCTGTTGCCT (site TAGGATTCTAG)” to “TAGGCGCCTTGGGTTCTAACCTGTTGCCT (site TAGGCGCCTAA)”, the “recombinant barcode read abundance (log10)” value falls from 1.88 to 0.173.

Going from “TAGGCGCCTTGGGTTCTAACCTGTTGCCT (site TAGGCGCCTAC)” to “TAGGCGCCTTGGGTTCTAACCTGTTGCCT (site TAGGCGCCTAG)”, the “recombinant barcode read abundance (log10)” value rises from 0.0375 to 0.252.

“TAGGCGCCTTGGGTTCTAACCTGTTGCCT (site TAGGCGCCTAT)” and “TAGGCTACTTGGGTTCTAACCTGTTGCAA (site TAGGCTACTAT)” are within 0.2 log units of each other in “recombinant barcode read abundance (log10)” value: 0.235 for the first, 0.144 for the second.

Going from “TAGGCTACTTGGGTTCTAACCTGTTGCAA (site TAGGCTACTCT)” to “TAGGCTACTTGGGTTCTAACCTGTTGCAA (site TAGGCTACTGT)”, the “recombinant barcode read abundance (log10)” value rises from 0.0112 to 1.49.

Compared with “TAGGCTACTTGGGTTCTAACCTGTTGCAA (site TAGGCTACTTT)”, “TAGGCTACTTGGGTTCTAACCTGTTGCAC (site TAGGCTACTAT)” is lower in “recombinant barcode read abundance (log10)” value: 1.33 for the first, 0.147 for the second.

Going from “TAGGCTACTTGGGTTCTAACCTGTTGCAC (site TAGGCTACTCT)” to “TAGGCTACTTGGGTTCTAACCTGTTGCAC (site TAGGCTACTGT)”, the “recombinant barcode read abundance (log10)” value rises from 0.131 to 1.19.

“TAGGCTACTTGGGTTCTAACCTGTTGCAC (site TAGGCTACTTT)” and “TAGGCTACTTGGGTTCTAACCTGTTGCCA (site ACCCAATCTGT)” are within 0.2 log units of each other in “recombinant barcode read abundance (log10)” value: 0.00761 for the first, 0.0662 for the second.

“TAGGCTACTTGGGTTCTAACCTGTTGCCA (site TAGGCTACTTG)” and “TAGGCTCCTTGGGTTCTAACCTGTTGCAG (site TAGGCTCCTAT)” are within 0.2 log units of each other in “recombinant barcode read abundance (log10)” value: 0.129 for the first, 0.271 for the second.

First: TAGGCTCCTTGGGTTCTAACCTGTTGCAG (site TAGGCTCCTCT)
Second: TAGGCTCCTTGGGTTCTAACCTGTTGCAG (site TAGGCTCCTGT)
The “recombinant barcode read abundance (log10)” value of the first is higher: 0.429 for the first, 0.0237 for the second.

Going from “TAGGCTCCTTGGGTTCTAACCTGTTGCAG (site TAGGCTCCTTT)” to “TAGGCTGCTTGGGTTCTAACCTGTTGCCT (site TAGACTGCTAG)”, the “recombinant barcode read abundance (log10)” value rises from 0.0834 to 0.359.

“TAGGCTGCTTGGGTTCTAACCTGTTGCCT (site TAGCCTGCTAG)” and “TAGGCTGCTTGGGTTCTAACCTGTTGCCT (site TAGGCTGCTAG)” are within 0.2 log units of each other in “recombinant barcode read abundance (log10)” value: 0 for the first, 0.177 for the second.

First: TAGGCTGCTTGGGTTCTAACCTGTTGCCT (site TAGTCTGCTAG)
Second: TAGGTTCCTTGGGTTCTAACCTGTTGCAT (site TAGGTACCTAT)
The “recombinant barcode read abundance (log10)” value of the first is lower: 0.519 for the first, 0.795 for the second.
